Data from patent US20250171430A1, “PYRAZOLYL COMPOUNDS AS KV7 CHANNEL ACTIVATORS” (Biohaven Therapeutics Ltd., priority 2022, published 2025).

molecular target: T1, Kv7.2/7.3 (Homo sapiens, UniProt O43525+O43526); experiment: Kv7.2/7.3 Activation Assay (Thallium Flux Assay); format: cell-based; details: hKV7.2/7.3 cell line; test compound at single concentration of 10 μM; fluorescence at 90 sec normalized to positive control (retigabine, 30 μM)
T1 construct: Kv7.2 tetracycline-induced, Kv7.3 constitutive
Method in brief: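 Human Kv7.2/7.3 cells with Kv7.2 induced overnight by 10 ng/mL tetracycline were loaded with FluxOR II Green for 1 h at 37 °C. Compounds were tested at 10 μM in 0.1% DMSO/extracellular solution, pH 7.4. Thallium/potassium stimulus was added after a 15 s baseline, and 90 s fluorescence (ex 475/em 530 nm) was normalized to 30 μM retigabine.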

Row | Compound | Kv7.2/7.3 Activity
1 | Cn1nc(NC(=O)OCC(F)F)c(C2CCC2)c1C1COC1 [Compound 280, 2,2-difluoro-213-ethyl (4-cyclobutyl-1-methyl-5-(oxetan-3-yl)-1H-pyrazol-3-yl)carbamate] | − (“−” No Activity < 0.15)
2 | Cn1nc(NC(=O)C2CC(F)(F)C2)c(C2CCC2)c1C1COC1 [Compound 282, N-(4-cyclobutyl-1-methyl-5-(oxetan-3-yl)-1H-pyrazol-3-yl)-3,3-difluorocyclobutane-1-carboxamide] | − (“−” No Activity < 0.15)
3 | Cn1nc(NC(=O)C[C@@H]2CC(F)(F)C2(F)F)c(C2CCC2)c1-c1ccc(OC(F)F)nc1 [Compound 283, (R)-N-(4-cyclobutyl-5-(6-(difluoromethoxy)pyridin-3-yl)-1-methyl-1H-pyrazol-3-yl)-2-(2,2,3,3-tetrafluorocyclobutyl)acetamide] | ++ (“++” High Activity ≥ 0.7)
4 | Cn1nc(NC(=O)C[C@@H]2CC(F)(F)C2(F)F)c(C2(C)CCC2)c1-c1ccc(F)cc1 [Compound 284, (R)-N-(5-(4-fluorophenyl)-1-methyl-4-(1-methylcyclobutyl)-1H-pyrazol-3-yl)-2-(2,2,3,3-tetrafluorocyclobutyl)acetamide] | ++ (“++” High Activity ≥ 0.7)
5 | Cn1nc(NC(=O)NC2CC(F)(F)C2)c(C2CCC2)c1-c1ccc(OC(F)(F)F)cc1 [Compound 285, 1-(4-cyclobutyl-1-methyl-5-(4-(trifluoromethoxy)phenyl)-1H-pyrazol-3-yl)-3-(3,3-difluorocyclobutyl)urea] | + (“+” Moderate Activity 0.15-0.7)
6 | Cn1nc(NC(=O)C2CC(F)(F)C2)c(C2(C)CCC2)c1-c1ccc(F)cc1 [Compound 286, 3,3-difluoro-N-(5-(4-fluorophenyl)-1-methyl-4-(1-methylcyclobutyl)-1H-pyrazol-3-yl)cyclobutane-1-carboxamide] | ++ (“++” High Activity ≥ 0.7)
7 | Cn1nc(NC(=O)C2CC(F)(F)C2)c(C2CCC2)c1C1CCC(F)(F)CC1 [Compound 289, N-(4-cyclobutyl-5-(4,4-difluorocyclohexyl)-1-methyl-1H-pyrazol-3-yl)-3,3-difluorocyclobutane-1-carboxamide] | ++ (“++” High Activity ≥ 0.7)
8 | Cn1nc(NC(=O)NC2CC(F)(F)C2)c(C2CCC2)c1C1CC(F)(F)C1 [Compound 290, 1-(4-cyclobutyl-5-(3,3-difluorocyclobutyl)-1-methyl-1H-pyrazol-3-yl)-3-(3,3-difluorocyclobutyl)urea] | ++ (“++” High Activity ≥ 0.7)
9 | CN(CC(F)(F)F)C(=O)Nc1nn(C)c(C2CC(F)(F)C2)c1C1CCC1 [Compound 291, 3-(4-cyclobutyl-5-(3,3-difluorocyclobutyl)-1-methyl-1H-pyrazol-3-yl)-1-methyl-1-(2,2,2-trifluoroethyl)urea] | ++ (“++” High Activity ≥ 0.7)

Further lines, results first:

Row | Kv7.2/7.3 Activity | Compound
10 | + (“+” Moderate Activity 0.15-0.7) | Cn1nc(NC(=O)OC2CC(F)(F)C2)c(C2CCC2)c1-c1ccc(C(F)(F)F)cc1 [Compound 279, 3,3-difluorocyclobutyl (4-cyclobutyl-1-methyl-5-(4-(trifluoromethyl)phenyl)-1H-pyrazol-3-yl)carbamate]
11 | ++ (“++” High Activity ≥ 0.7) | Cn1nc(NC(=O)OC2CC(F)(F)C2)c(C2CCC2)c1-c1ccc(OC(F)(F)F)cc1 [Compound 281, 3,3-difluorocyclobutyl (4-cyclobutyl-1-methyl-5-(4-(trifluoromethoxy)phenyl)-1H-pyrazol-3-yl)carbamate]
12 | ++ (“++” High Activity ≥ 0.7) | Cn1nc(NC(=O)OC2CC(F)(F)C2)c(C2CCC2)c1-c1cc(F)c(F)c(F)c1 [Compound 287, 3,3-difluorocyclobutyl (4-cyclobutyl-1-methyl-5-(3,4,5-trifluorophenyl)-1H-pyrazol-3-yl)carbamate]
13 | ++ (“++” High Activity ≥ 0.7) | Cn1nc(NC(=O)NC2CC(F)(F)C2)c(C2CCC2)c1-c1cc(F)c(F)c(F)c1 [Compound 288, 1-(4-cyclobutyl-1-methyl-5-(3,4,5-trifluorophenyl)-1H-pyrazol-3-yl)-3-(3,3-difluorocyclobutyl)urea]
